Experiments:
[1] = tested on: acetylated histone H3; test: Western blot of acetylated histone H3 in MM1S cells; assay type: cell-based, human
Description: FIGS. 12A, 12B, and 12C are a series of western blots showing that degrader 12d selectively promotes HDAC6 degradation in MM1S cells.
To further examine the selectivity of the new generation of HDAC6 degraders, compound 12d was compared to SAHA, Next-A, degrader 1 and pan-inhibitor 2 for change of acetylated a-tubulin and acetylated histone H3.
When the cells reached 90% confluence, they were harvested and plated 1×10^6 cells per well in 6-well plate. After overnight seeding, the cells were treated with a solution of compounds or vehicle in culture medium. The culture medium was removed after treatment and then washed twice with cold PBS. To obtain whole cell lysate, all cells were treated with RIPA lysis buffer (25 mM Tris, pH 7-8, 150 mM NaCl, 0.1% SDS, 0.5% sodium deoxycholate, 1% Triton X-100, protease inhibitor cocktail (Roche, 1 tablet per 10 mL) and 1 mM PMSF) on ice for 10 minutes. Supernatant was collected after spinning down at 16,000 g at 4° C. for 15 minutes. Protein concentration was measured by using the Pierce BCA protein assay (Thermo Fisher Scientific). […] The Immunoblot was generated by ChemiDoc MP Imaging Systems (Bio-Rad) and analyzed by Image J software (only available for download online at https://imagej.net/Downloads). […]

[2] = target: T1, HDAC6 (Mus musculus, UniProt Q9Z2V5); test: In-cell ELISA of HDAC6 in mice immortalized cell line 4935; assay type: cell-based; settings: mice immortalized cell line 4935, in-cell ELISA
T1 construct: endogenous in cells; host or cells: mouse immortalized cell line 4935
T1 sequence (Q9Z2V5 1-1149): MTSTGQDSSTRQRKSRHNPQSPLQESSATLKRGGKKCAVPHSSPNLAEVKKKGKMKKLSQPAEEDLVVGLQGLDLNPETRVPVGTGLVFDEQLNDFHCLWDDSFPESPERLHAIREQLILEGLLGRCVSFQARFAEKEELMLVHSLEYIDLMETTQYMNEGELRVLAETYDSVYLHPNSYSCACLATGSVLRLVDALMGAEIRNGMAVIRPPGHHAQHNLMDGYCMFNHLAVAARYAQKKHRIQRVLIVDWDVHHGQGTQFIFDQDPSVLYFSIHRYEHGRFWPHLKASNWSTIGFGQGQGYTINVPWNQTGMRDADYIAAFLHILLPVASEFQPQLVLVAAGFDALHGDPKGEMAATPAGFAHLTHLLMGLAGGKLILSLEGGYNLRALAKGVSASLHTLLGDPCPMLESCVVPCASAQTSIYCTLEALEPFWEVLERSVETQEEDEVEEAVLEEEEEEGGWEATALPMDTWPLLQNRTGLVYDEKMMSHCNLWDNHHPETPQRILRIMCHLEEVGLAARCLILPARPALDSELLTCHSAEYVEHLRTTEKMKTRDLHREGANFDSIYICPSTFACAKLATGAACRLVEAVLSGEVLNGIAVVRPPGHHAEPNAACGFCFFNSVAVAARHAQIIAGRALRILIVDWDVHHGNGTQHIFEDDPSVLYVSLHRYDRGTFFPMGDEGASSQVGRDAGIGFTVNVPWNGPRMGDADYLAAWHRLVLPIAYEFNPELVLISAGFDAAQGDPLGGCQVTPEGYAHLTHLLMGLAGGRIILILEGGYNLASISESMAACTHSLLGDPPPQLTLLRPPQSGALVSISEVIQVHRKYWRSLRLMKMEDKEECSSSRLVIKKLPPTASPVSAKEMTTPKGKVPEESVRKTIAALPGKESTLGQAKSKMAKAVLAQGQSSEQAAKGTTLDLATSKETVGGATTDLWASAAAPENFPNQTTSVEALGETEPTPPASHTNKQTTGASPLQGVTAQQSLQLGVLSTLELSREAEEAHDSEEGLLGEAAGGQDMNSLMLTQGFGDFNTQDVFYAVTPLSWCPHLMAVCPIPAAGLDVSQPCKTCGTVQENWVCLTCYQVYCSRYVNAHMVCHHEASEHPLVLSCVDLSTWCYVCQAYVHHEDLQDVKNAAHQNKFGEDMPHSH
Experimental: FIG. 19 is a dose-response curve for HDAC6 expression as a function of concentration for compounds 2 and 3j from Part 2 of the Example section.
The degradation efficiency of HDAC6 induced by 2 and 3j in mice immortalized cell line 4935 was also tested using western blot and in-cell ELISA. In concentrations ranging from 10 nM to 10 μM, VHL-based degrader 3j induced more HDAC6 degradation and tubulin acetylation than CRBN-based degrader 2 (data not shown). […] The maximal degradation percentage for HDAC6 induced by 3j is 56.8%, which is better than 45.3% of Dmax induced by compound 2. […] The VHL E3 ligase-based degrader 3j may have advantages over CRBN-based degrader 2 in animal studies using mice as the model system.

With `CCCCN(Cc1ccc(C(=O)NO)cc1)C(=O)Nc1ccc(OCCCCCn2cc(CNc3cccc4c3C(=O)N(C3CCC(=O)NC3=O)C4=O)nn2)cc1` (stereo not drawn) [Compound 12d, 4-((1-butyl-3-(4-((5-(4-(((2-(2,6-dioxopiperidin-3-yl)-1,3-dioxoisoindolin-4-yl)amino)methyl)-1H-1,2,3-triazol-1-yl)pentyl)oxy)phenyl)ureido)methyl)-N-hydroxybenzamide] the “change of acetylated histone H3” value [1] was “No increase”.

Compound `CCCCN(Cc1ccc(C(=O)NO)cc1)C(=O)Nc1ccc(OCCCCCn2cc(CNc3cccc4c3C(=O)N(C3CCC(=O)NC3=O)C4=O)nn2)cc1` (stereo not drawn) [Compound 2] has a DC50 [2] of ~17 nM and a Dmax ([2]; read-out: maximal degradation percentage for HDAC6 (Dmax)) of 45.3%.

From patent US11059815B2, “Synthesis of small molecule histone deacetylase 6 degraders, compounds formed thereby, and pharmaceutical compositions containing them” (Wisconsin Alumni Research Foundation, priority 2018, dated 2021)
